Data as given in patent publication US10315990B2, “Isothiocyanate compounds and isothiocyanate XPO1 protein inhibitor drugs thereof” (DRIVINGFORCE THERAPEUTICS Co., Ltd., priority 2015, dated 2019).

Key:
[1] = target: T1, XPO1 protein (Homo sapiens, UniProt O14980); test: Inhibitory activity for XPO1 protein (NES-GFP nuclear export, laser confocal microscope); type: cell-based; conditions: NES-GFP nuclear export, cells treated for 2 hours
T1 construct: Sixteen hours later, NES-GFP plasmid was transfected with liposome; endogenous in cells

[2] = tested on: IBD animal model; test: Macroscopic pathological changes of IBD animal model (enteroclysis with TNBS); type: in vivo, SD rats; conditions: TNBS rats
In short: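 Male SD rats, eight weeks old (10 per group), given rectal TNBS in 50% ethanol at 100 mg/kg 5 cm from anus; controls received saline. Drug treatment for two weeks, then rectum photographed, weighed and scored macroscopically for ulceration and bleeding.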

[3] = tested on: IL-6; test: Serum IL-6 level of IBD animal model (ELISA); type: in vivo, SD rats; conditions: 80 mg/kg, three days after making the TNBS model
Source text: Inflammatory bowel disease is an autoimmune disease. […] The therapeutic effect of the representative compound for the immune system disease or inflammation can be assessed by detecting change in levels of some important cytokines such as TNF-α and IL-6 at downstream of the signal path.

[4] = tested on: Panc-1; test: Inhibitory activity for other high metastasis type cancer cell line (MTT or CCK-8); type: cell-based; conditions: Homo sapiens; Panc-1, 72 hours; read-out: IC50
[5] = tested on: Saos-2; test: as above; type: cell-based; conditions: Homo sapiens; Saos-2, 72 hours; read-out: IC50
[6] = tested on: 786-O; test: as above; type: cell-based; conditions: Homo sapiens, 786-0; 786-O, 72 hours; read-out: IC50

T1 sequence (O14980 whole entry, species assumed): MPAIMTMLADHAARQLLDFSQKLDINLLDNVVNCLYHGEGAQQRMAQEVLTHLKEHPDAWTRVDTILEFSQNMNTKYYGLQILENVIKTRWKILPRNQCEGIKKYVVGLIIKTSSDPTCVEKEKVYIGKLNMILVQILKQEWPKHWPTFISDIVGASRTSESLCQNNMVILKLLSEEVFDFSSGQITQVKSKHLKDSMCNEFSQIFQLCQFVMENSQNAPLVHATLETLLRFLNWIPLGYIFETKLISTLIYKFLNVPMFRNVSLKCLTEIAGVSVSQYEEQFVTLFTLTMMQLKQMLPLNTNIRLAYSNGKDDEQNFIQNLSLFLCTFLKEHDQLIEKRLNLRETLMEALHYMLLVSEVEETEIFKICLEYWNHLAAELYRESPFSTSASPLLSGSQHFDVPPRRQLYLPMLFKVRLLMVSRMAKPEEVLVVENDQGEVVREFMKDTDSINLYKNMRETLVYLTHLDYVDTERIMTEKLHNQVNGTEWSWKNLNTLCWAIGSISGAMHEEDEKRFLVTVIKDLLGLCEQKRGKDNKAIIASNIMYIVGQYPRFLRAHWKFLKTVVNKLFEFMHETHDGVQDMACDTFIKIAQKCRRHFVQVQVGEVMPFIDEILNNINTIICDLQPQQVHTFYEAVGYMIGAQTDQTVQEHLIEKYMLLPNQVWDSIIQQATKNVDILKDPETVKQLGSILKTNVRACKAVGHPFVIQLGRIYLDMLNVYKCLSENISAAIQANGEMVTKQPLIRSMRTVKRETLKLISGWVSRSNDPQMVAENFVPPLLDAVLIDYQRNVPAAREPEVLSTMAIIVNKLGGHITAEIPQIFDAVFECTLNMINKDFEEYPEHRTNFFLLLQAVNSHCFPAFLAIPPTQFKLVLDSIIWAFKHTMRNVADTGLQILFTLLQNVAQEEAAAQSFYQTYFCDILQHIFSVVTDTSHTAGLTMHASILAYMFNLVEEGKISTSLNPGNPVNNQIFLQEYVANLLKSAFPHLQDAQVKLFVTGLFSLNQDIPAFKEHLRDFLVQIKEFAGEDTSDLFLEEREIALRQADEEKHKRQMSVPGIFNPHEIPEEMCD

## C[S+]([O-])CCCCN=C=S (stereo not drawn) [SFN, sulforaphane, reference compound]
[1]
  Activity (μM): inhibitory activity for XPO1 protein (full inhibitory concentration): 35 µM
[2]; 80 mg/kg intragastrically daily, score 0-5, 10 animals
  Macroscopic pathological score: 4.0 ± 0.5
[2]; 80 mg/kg
  colon tissue bleeding and ulceration phenomena (in words): small relief extent
[3]; Animal-1
  Serum IL-6 level, Animal-1: 2.5 ng/mL
[3]; Animal-2
  Serum IL-6 level, Animal-2: 2.4 ng/mL
[3]; Animal-3
  Serum IL-6 level, Animal-3: 2.3 ng/mL
[4]
  IC50: 12.1 µM
[5]
  IC50: 14.5 µM
[6]
  IC50: 10.2 µM
